pEC50: −log10 of the molar value.

The target of the first assay is Steroidogenic factor 1 (Homo sapiens, UniProt Q13285). Nature of the assay: activation of SF-1 LBD reporter – cell-based, CHO-K1, Gal4-SF-1 LBD, luciferase luminescence, dose response (AID 692).
Steroidogenic factor 1, sequence (Q13285 whole entry, the tested form may be a part): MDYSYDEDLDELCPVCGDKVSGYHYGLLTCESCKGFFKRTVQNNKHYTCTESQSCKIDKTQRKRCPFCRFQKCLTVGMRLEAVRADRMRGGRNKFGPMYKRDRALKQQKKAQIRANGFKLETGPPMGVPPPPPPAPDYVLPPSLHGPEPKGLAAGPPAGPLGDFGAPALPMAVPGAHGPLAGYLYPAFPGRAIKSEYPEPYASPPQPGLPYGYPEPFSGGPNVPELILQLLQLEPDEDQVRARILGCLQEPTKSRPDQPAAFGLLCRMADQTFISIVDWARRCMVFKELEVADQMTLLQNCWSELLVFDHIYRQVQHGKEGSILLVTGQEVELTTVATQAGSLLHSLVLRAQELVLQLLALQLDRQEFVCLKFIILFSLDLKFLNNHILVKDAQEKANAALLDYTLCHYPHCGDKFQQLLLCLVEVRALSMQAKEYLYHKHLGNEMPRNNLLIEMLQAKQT
Details: not given
As for `COc1ccc(C(=O)CC=Nc2cccc(C)n2)cc1OC`, the pEC50 is 6.40. Still for that read-out and setting: next, `CC(=O)c1c(C)[nH]c(C(=O)Nc2ccc3c(c2)OCCO3)c1C`: 6.33. Turning to `COc1ccc2c(c1OC)C(=O)N1c3ccccc3SC21` (stereo unspecified) [1,2-dimethoxy-4bH-isoindolo[1,2-b][1,3]benzothiazol-11-one], the pEC50 was 6.08. Regarding `O=C(CSc1ccccn1)c1ccc2c(c1)OCO2` [1-(1,3-benzodioxol-5-yl)-2-(2-pyridinylthio)ethanone], the pEC50 was 5.93.

In turn, `O=C(COc1ncnc2ccccc12)c1ccc2c(c1)OCCO2` [1-(2,3-dihydro-1,4-benzodioxin-6-yl)-2-(4-quinazolinyloxy)ethanone] had a negative logarithm of the EC50 (pEC50) of 6.40.

In turn, `CCCn1c(C)cc(C(=O)COc2ncnc3sccc23)c1C` [1-(2,5-dimethyl-1-propyl-3-pyrrolyl)-2-(4-thieno[2,3-d]pyrimidinyloxy)ethanone] showed a pEC50 of 6.23. The pEC50 values of the last two compounds are within 0.2 log units of each other. Same read-out and setting: next, `N#CCc1ccc(NC(=O)Nc2cccc(Cl)c2)cc1` [1-(3-chlorophenyl)-3-[4-(cyanomethyl)phenyl]urea]: 5.61; `CN(C)c1ccc(NC(=O)Nc2cccc(Cl)c2)cc1` [1-(3-chlorophenyl)-3-[4-(dimethylamino)phenyl]urea]: 6.41. Same read-out and setting: next, `Clc1ccc(-n2ncc3c(NCc4ccccn4)ncnc32)cc1` [1-(4-chlorophenyl)-N-(2-pyridinylmethyl)-4-pyrazolo[3,4-d]pyrimidinamine]: 5.55; `COc1ccc2nc(Nc3nc(C)c(C(C)=O)s3)sc2c1` [1-[2-[(6-methoxy-1,3-benzothiazol-2-yl)amino]-4-methyl-1,3-thiazol-5-yl]ethanone]: 6.24.

`CCOC(=O)C1CCN(S(=O)(=O)c2ccc(-c3nc4ccccc4s3)s2)CC1` [1-[[5-(1,3-benzothiazol-2-yl)-2-thienyl]sulfonyl]isonipecotic acid ethyl ester] showed a negative logarithm of the EC50 (pEC50) of 5.66.

Compound `COc1ccc2c(c1)CCc1c(C(=O)N3CCCCCC3)noc1-2` [1-azepanyl-(7-methoxy-4,5-dihydrobenzo[g][1,2]benzoxazol-3-yl)methanone] gave a pEC50 of 5.88. For `COc1ccc(CNC(=O)NC2CCCCC2)cc1` [1-cyclohexyl-3-[(4-methoxyphenyl)methyl]urea], the pEC50 was less than 4.96. Consider `COc1ccc(-c2cc(C(=O)N3CCCCC3)no2)cc1OC` [1-{[5-(3,4-dimethoxyphenyl)isoxazol-3-yl]carbonyl}piperidine], for which the pEC50 is 5.42. The same measure, in the same setting: next, `Cc1cc(C(=O)OCC(=O)N2CCc3ccccc32)c(C)o1` [2,5-dimethyl-3-furancarboxylic acid [2-(2,3-dihydroindol-1-yl)-2-oxoethyl] ester]: 5.91.

In the case of `CC(C)(C)n1ncc2c(=O)n(CC(=O)NCc3ccccc3Cl)cnc21` [2-(1-tert-butyl-4-keto-pyrazolo[3,4-d]pyrimidin-5-yl)-N-(2-chlorobenzyl)acetamide], the pEC50 was 6.86. As to `COc1cc(N2CCCC2)c(OC)cc1C=c1sc2nc3ccccc3n2c1=O` [2-(2,5-dimethoxy-4-pyrrolidino-benzylidene)thiazolo[3,2-a]benzimidazol-1-one], the pEC50 is 4.83. As to `CCn1c(SCC(=O)c2cccs2)nnc1-c1ccco1` [2-(4-Ethyl-5-furan-2-yl-4H-[1,2,4]triazol-3-ylsulfanyl)-1-thiophen-2-yl-ethanone], the negative-log EC50 (pEC50) was 5.01. Still for that read-out and setting: for `CN(C)c1oc(-c2ccc(OCc3ccccc3)cc2)nc1C#N` [2-(4-benzoxyphenyl)-5-(dimethylamino)oxazole-4-carbonitrile] the value was 5.28; for `CCOc1ccc(N2C(=O)c3ccccc3C2O)cc1` (stereo unspecified) [2-(4-ethoxyphenyl)-3-hydroxy-3H-isoindol-1-one], 5.90. The same measure, in the same setting: for `O=C(CSc1nc2ccccc2o1)Nc1nc2ccccc2s1` [2-(Benzooxazol-2-ylsulfanyl)-N-benzothiazol-2-yl-acetamide] the value was less than 4.00; for `C=CCn1c(C)cc(C(=O)CSc2nc(O)c3ccccc3n2)c1C` [2-[2-(2,5-dimethyl-1-prop-2-enyl-pyrrol-3-yl)-2-oxidanylidene-ethyl]sulfanyl-1H-quinazolin-4-one], 6.39; for `OCCOCCNc1ncnc2c1cnn2-c1ccc(Cl)cc1` [2-[2-[[1-(4-chlorophenyl)-4-pyrazolo[3,4-d]pyrimidinyl]amino]ethoxy]ethanol], 6.36. Compound `CCOC(=O)CSc1nc2ccccc2c(=O)n1NC(=O)c1ccccc1` [2-[(3-benzamido-4-keto-quinazolin-2-yl)thio]acetic acid ethyl ester] gave a pEC50 of 5.87. Compared with the last compound, the pEC50 is 0.49 log units lower. The compound `CCc1nnc(NC(=O)CSc2nc3c(cc2C#N)CCC3)s1` [2-[(3-cyano-1-pyrindan-2-yl)thio]-N-(5-ethyl-1,3,4-thiadiazol-2-yl)acetamide] had a pEC50 of 5.92. Take `CCOC(=O)CSc1nc(-c2ccncc2)ccc1C#N` [2-[(3-cyano-6-pyridin-4-yl-2-pyridinyl)thio]acetic acid ethyl ester]: the pEC50 is 5.79.

On to `Cc1csc2nc(CSc3nc4ccccc4o3)cn12` [2-[(3-methyl-6-imidazo[2,1-b]thiazolyl)methylthio]-1,3-benzoxazole], for which the negative logarithm of the EC50 (pEC50) is less than 5.44. `Nn1c(SCC(=O)Nc2ccc(F)cc2F)nnc1-c1cccnc1` [2-[(4-amino-5-pyridin-3-yl-1,2,4-triazol-3-yl)sulfanyl]-N-(2,4-difluorophenyl)acetamide] gave a pEC50 of less than 4.96. Still for that read-out and setting: next, `CCc1nnc(NC(=O)CSc2nc(C)c3c(c2C#N)CCCC3)s1` [2-[(4-cyano-1-methyl-5,6,7,8-tetrahydroisoquinolin-3-yl)sulfanyl]-N-(5-ethyl-1,3,4-thiadiazol-2-yl)acetamide]: 5.77; `O=C1CCCC(=O)C1=CNc1ccc(O)cc1` [2-[(4-hydroxyanilino)methylidene]cyclohexane-1,3-dione]: 5.42. `CCOC(=O)CSc1nc(-c2ccc3c(c2)OCO3)ccc1C#N` [2-[[6-(1,3-benzodioxol-5-yl)-3-cyano-2-pyridinyl]thio]acetic acid ethyl ester] gave a pEC50 of less than 5.44.

Turning to `Cc1nc2sc(-c3ccccc3)cc2c(=O)n1-n1cccc1` [2-methyl-6-phenyl-3-(1-pyrrolyl)-4-thieno[2,3-d]pyrimidinone], the pEC50 was 6.32.

For `Cc1ccc(C(=O)Nc2nnc(-c3cccs3)s2)cc1C` [3,4-dimethyl-N-(5-thiophen-2-yl-1,3,4-thiadiazol-2-yl)benzamide], the pEC50 was 6.00. Compared with the last compound, the pEC50 is 0.32 log units lower. Same read-out and setting: for `Cc1ccc(-n2c(C)cc(C(=O)COC(=O)c3c(C)noc3C)c2C)cc1` [3,5-dimethyl-4-isoxazolecarboxylic acid [2-[2,5-dimethyl-1-(4-methylphenyl)-3-pyrrolyl]-2-oxoethyl] ester] the value was 5.74. `COc1cc(C2c3c(c(O)n(-c4ccccc4)c3O)ON2c2ccccc2)ccc1O` (stereo unspecified) [3-(3-methoxy-4-oxidanyl-phenyl)-2,5-diphenyl-3a,6a-dihydro-3H-pyrrolo[3,4-d][1,2]oxazole-4,6-dione] had a pEC50 of 4.50.

As for `COc1ccc2nc3sc(C(=O)NCc4cccs4)c(N)c3cc2c1` [3-Amino-6-methoxy-thieno[2,3-b]quinoline-2-carboxylic acid (thiophen-2-ylmethyl)-amide], the pEC50 is 6.39. On the same count and under the same terms, next, `O=c1c2ccccc2nnn1CSc1nnc(COc2ccc(Cl)cc2)n1Cc1ccco1` [3-[[5-[(4-chloranylphenoxy)methyl]-4-(furan-2-ylmethyl)-1,2,4-triazol-3-yl]sulfanylmethyl]-1,2,3-benzotriazin-4-one]: less than 5.44; `COc1cccc(C(=O)Nc2cccc(-c3nnc(-c4ccccc4)o3)c2)c1` [3-methoxy-N-[3-(5-phenyl-1,3,4-oxadiazol-2-yl)phenyl]benzamide]: less than 5.91; `COc1ccc(-c2nc3c(Br)c(N)c(Br)cc3o2)cc1` [4,6-bis(bromanyl)-2-(4-methoxyphenyl)-1,3-benzoxazol-5-amine]: 6.08. `c1ccc2nc3c(nc2c1)c1ccccc1n3CCN1CCOCC1` [4-(2-indolo[3,2-b]quinoxalin-6-ylethyl)morpholine] showed a pEC50 of less than 4.96.

On to `COc1ccc(CNc2ccc(C(=O)O)cc2)cc1` [4-(p-anisylamino)benzoic acid], for which the pEC50 was 5.74. The same measure, in the same setting: next, `CCCOC(=O)c1ccc(NC(=O)C2CCCO2)cc1` (stereo unspecified) [4-(tetrahydrofuran-2-carbonylamino)benzoic acid propyl ester]: 5.60; `COc1cccc2c(O)c(C(=O)NCc3cccs3)cnc12` [4-Hydroxy-8-methoxy-quinoline-3-carboxylic acid (thiophen-2-ylmethyl)-amide]: 5.18; `Cc1cccnc1Nc1nc(-c2ccc(O)cc2O)cs1` [4-[2-(3-Methyl-pyridin-2-ylamino)-thiazol-4-yl]-benzene-1,3-diol]: 5.64. Still for that read-out and setting: next, `CC(C)(CC(=O)O)Cc1nc(-c2ccc(Cl)cc2)no1` [4-[3-(4-chlorophenyl)-1,2,4-oxadiazol-5-yl]-3,3-dimethyl-butanoic acid]: less than 4.96. Same read-out and setting: next, `CCOC(=O)N1CCN(S(=O)(=O)c2ccc(C(=O)Nc3sc4c(c3C#N)CCC4)cc2)CC1` [4-[4-[(3-cyano-5,6-dihydro-4H-cyclopenta[b]thiophen-2-yl)carbamoyl]phenyl]sulfonylpiperazine-1-carboxylic acid ethyl ester]: less than 5.91. `COC(=O)c1ccc(C(=O)C(C#N)c2nc3ccccc3s2)cc1` (stereo unspecified) [4-[(2Z)-2-(3H-1,3-benzothiazol-2-ylidene)-2-cyano-1-oxoethyl]benzoic acid methyl ester]: the pEC50 was 5.57.

The same assay, now with this note: inactive by the depositor's call.
Turning to `O=C(Cc1ccccc1)n1nc(-c2ccccc2)nc1NCc1ccco1` [1-[5-(2-furanylmethylamino)-3-phenyl-1,2,4-triazol-1-yl]-2-phenylethanone], the pEC50 was 4.95. Compound `Fc1cnc(N2CCOCC2)nc1N1CCc2ccccc21` [1-[5-fluoro-2-(4-morpholinyl)-4-pyrimidinyl]indoline] had a pEC50 of 4.86. The pEC50 values of the last two compounds are within 0.2 log units of each other.

In turn, `Cc1cccc(-n2ccnc2SCC(=O)Nc2nccs2)c1` [2-[1-(3-methylphenyl)imidazol-2-yl]sulfanyl-N-(1,3-thiazol-2-yl)acetamide] gave a negative logarithm of the EC50 (pEC50) of 4.96. Still for that read-out and setting: next, `O=C(CNc1ccccc1)Nc1ccc(F)cc1` [2-anilino-N-(4-fluorophenyl)acetamide]: 4.94.

These data come from BindingDB's records for doi:10.7270/Q23T9FMP (The Scripps Research Institute Molecular Screening Center, 2007).
